In BindingDB's records for patent US10123984 (Theravance Biopharma R&D Ip, 2018):

Molecular target: Neprilysin (Homo sapiens, UniProt P08473)
Test: Enzyme NEP Inhibition Assay

IC50 [nM] | Ki [nM] | SMILES
 | < 1 | COCCOC(=O)C(=O)N[C@H](Cc1ccc(-c2cccc(Cl)c2)cc1)C[C@@H](O)C(=O)O [US10123984, Example 2T]
 | < 1 | CCOCCCOC(=O)C(=O)N[C@H](Cc1ccc(-c2cccc(Cl)c2)cc1)C[C@@H](O)C(=O)O [US10123984, Example 2V]
 | < 1 | O=C(N[C@H](Cc1ccc(-c2cccc(Cl)c2)cc1)C[C@@H](O)C(=O)O)C(=O)OCCOc1ccccc1 [US10123984, Example 2U]

The remaining lines, values behind:

SMILES | IC50 [nM] | Ki [nM]
C[C@H](CC(Cc1ccc(-c2ccccc2)cc1)NC(=O)CC(=O)O)C(=O)O (some centres undefined) [US10123984, Compound 21g] | 92 | 
C[C@H](C[C@@H](Cc1ccc(-c2ccccc2)cc1)NC(=O)CCCC(=O)O)C(=O)O [US10123984, Compound 21e] | 90 | 
CCOC(=O)C(=O)N[C@H](Cc1ccc(-c2cccc(Cl)c2)cc1)C[C@@H](O)C(=O)O [US10123984, Example 2F] |  | < 1
C[C@H](C[C@@H](Cc1ccc(-c2ccccc2)cc1)NC(=O)CCCCC(=O)O)C(=O)O [US10123984, Compound 21f] | 324 | 
O=C(O)C(=O)N[C@H](Cc1ccc(-c2cccc(Cl)c2)cc1)C[C@@H](O)C(=O)O [US10123984, Example 2A] |  | < 1
CC(C)COC(=O)C(=O)N[C@H](Cc1ccc(-c2cccc(Cl)c2)cc1)C[C@@H](O)C(=O)O [US10123984, Example 2H] |  | < 1
